# Test results as given in patent publication US20250215008A1, “PREPARATION AND USE OF QUINAZOLINONE DERIVATIVE AS KINASE INHIBITOR” (Haisco Pharmaceutical Group Co., Ltd., priority 2022, published 2025).
# Read-outs that look alike come from different tables or passages of the source.
# How the values were obtained:
# A375 cells = experiment: A375 cell proliferation inhibition; format: cell-based; details: read-out: IC50/nM, inhibitory activity on A375 cells
# Method: A375 cells (ATCC, CRL-1619) were cultured in DMEM complete medium (+10% FBS) in a CO2 incubator at 37° C. for 48 h. The cells were trypsinized and counted, and then the density was adjusted to 1.67×10^4 cells/mL. 90 μL (1500 cells) of cells were inoculated into each well of a 96-well transparent bottom plate, and the plate was transferred to a CO2 incubator and the cells were cultured overnight at 37° C. After the cells were incubated overnight, 10 μL of the diluted compound (final concentration starting from 10 μM, 3-fold dilution, 11 concentrations) was added to each well using a multi-channel pipette. The positive control was a serum-free medium containing DMSO. After mixing evenly, the cells were placed in a CO2 incubator at 37° C. for 72 h. After the incubation, the CellCounting-Lite®2.0 kit detection solution (Vazyme, DD1101-03) was taken out and returned to room temperature. 100 μL of CellCounting-Lite2.0 detection solution was added to each well, the plate was sealed with a sealing film, and the plate was placed on a shaker for shaking for 15 min (the whole process should be kept away from light). The Luminescence module of the microplate reader (BMG LRBTECH) was used to detect the fluorescence signal value LUM of each well. The formula
# [formula] • was used to calculate the inhibition rate of the compound. The Graphpad software log (inhibitor) vs. response—Variable slope (four parameters) equation was used to perform fitting analysis and calculate the IC50 value of the sample. The ordinate of the data is the percentage of inhibition rate, and the abscissa is the logarithm of the sample concentration (Log10).
# [1] = Mouse pharmacokinetic test; format: in vivo, ICR mice; details: for Kp: brain/plasma, read-out: brain/plasma ratio; for Vd: read-out: Vdss
# Method: (§1) • 1.1 Experimental animals: male ICR mice, 20-25 g, 12 mice/compound, purchased from Chengdu Ddossy Experimental Animals Co., Ltd. • 1.2 Experimental design: on the day of the test, 12 ICR mice were randomly grouped according to their body weights. The animals were fasted with water available for 12 to 14 h one day before the administration and were fed 4 h after the administration.
# Before and after administration, 0.06 mL of blood was taken from the orbit under isoflurane anesthesia and placed in an EDTAK2 centrifuge tube for centrifugation at 5000 rpm at 4° C. for 10 min, followed by plasma collection. The blood collection time points for the intravenous administration group and intragastric administration group were 0, 5 min, 15 min, 30 min, 1 h, 2 h, 4 h, 7 h and 24 h. Before analysis and detection, all samples were stored at −80° C., and a quantitative analysis of samples was performed using LC-MS/MS.
# [2] = Beagle dog pharmacokinetic test; format: in vivo, beagle dogs; details: for F: beagle dog
# Method: • Experimental animals: male beagle dogs, about 8-11 kg, 6 beagle dogs/compound, purchased from Beijing Marshall Biotechnology Co., Ltd. • Experimental method: on the day of the experiment, 6 beagle dogs were randomly grouped according to their body weights. The animals were fasted with water available for 12 to 14 h one day before the administration and were fed 4 h after the administration. Administration was performed as per Table 1.
# (DMA: dimethylacetamide; Solutol: polyethylene glycol-15-hydroxystearate; Saline: physiological saline; MC: Methylcellulose solution) Before and after the administration, 1 ml of blood was taken from the jugular veins or limb veins, and placed in an EDTAK2 centrifuge tube. Centrifugation was performed at 5000 rpm at 4° C. for 10 min, and plasma was collected. The blood collection time points for the intravenous group and intragastric group were both 0 min, 5 min, 15 min, 30 min, 1 h, 2 h, 4 h, 6 h, 8 h, 10 h, 12 h, 24 h, 48 h, and 72 h. Before analysis and detection, all samples were stored at −80° C. The samples were analyzed quantitatively by LC-MS/MS.
# Rat pharmacokinetic test = format: in vivo, SD rats
# Method: as §1, with “5.1” for “1.1”, “SD rats, about 220” for “ICR mice, 20-25”, “6-8 weeks old, 6 rats/compound,” for “12 mice/compound,”, “5.2” for “1.2”, “experiment, 6 SD rats” for “test, 12 ICR mice”, “weights; the” for “weights. The”
# Before and after the administration, 0.1 ml of blood was taken from the orbit of the animals under isoflurane anesthesia and placed in an EDTAK2 centrifuge tube. The blood was centrifuged at 5000 rpm and 4° C. for 10 min to collect plasma. Blood sampling time points for the intravenous administration group: 0, 5 min, 15 min, 30 min, 1 h, 2 h, 4 h, 6 h, 8 h, and 24 h; blood sampling time points for the intragastric administration group: 0, 5 min, 15 min, 30 min, 1 h, 2 h, 4 h, 6 h, 8 h and 24 h. Before analysis and detection, all samples were stored at −80° C.
# MDR1 = MDR1 (Homo sapiens (Human), UniProt P08183); details: cited from earlier work
# BCRP = BCRP (Homo sapiens (Human), UniProt Q9UNQ0); details: cited from earlier work
# [3] = in vivo; cited from earlier work
# [4] = male, ICR, po, mouse, i.g. 10 mg/kg
# [5] = male, ICR, iv, mouse plasma, i.v. 2.5 mg/kg
# [6] = male, ICR, iv, mouse plasma, i.v. 2.5 mg/kg, read-out: AUC0-t
# [7] = male, ICR, po, mouse plasma, i.g. 10 mg/kg
# [8] = male, ICR, po, mouse plasma, i.g. 10 mg/kg, read-out: AUC0-t
# [9] = beagle dog plasma, i.v. 0.5 mg/kg
# [10] = rat plasma, intragastric administration 10 mg/kg
# [11] = rat plasma, intravenous administration 2.5 mg/kg
# Sequence of MDR1 (P08183 whole entry, species assumed): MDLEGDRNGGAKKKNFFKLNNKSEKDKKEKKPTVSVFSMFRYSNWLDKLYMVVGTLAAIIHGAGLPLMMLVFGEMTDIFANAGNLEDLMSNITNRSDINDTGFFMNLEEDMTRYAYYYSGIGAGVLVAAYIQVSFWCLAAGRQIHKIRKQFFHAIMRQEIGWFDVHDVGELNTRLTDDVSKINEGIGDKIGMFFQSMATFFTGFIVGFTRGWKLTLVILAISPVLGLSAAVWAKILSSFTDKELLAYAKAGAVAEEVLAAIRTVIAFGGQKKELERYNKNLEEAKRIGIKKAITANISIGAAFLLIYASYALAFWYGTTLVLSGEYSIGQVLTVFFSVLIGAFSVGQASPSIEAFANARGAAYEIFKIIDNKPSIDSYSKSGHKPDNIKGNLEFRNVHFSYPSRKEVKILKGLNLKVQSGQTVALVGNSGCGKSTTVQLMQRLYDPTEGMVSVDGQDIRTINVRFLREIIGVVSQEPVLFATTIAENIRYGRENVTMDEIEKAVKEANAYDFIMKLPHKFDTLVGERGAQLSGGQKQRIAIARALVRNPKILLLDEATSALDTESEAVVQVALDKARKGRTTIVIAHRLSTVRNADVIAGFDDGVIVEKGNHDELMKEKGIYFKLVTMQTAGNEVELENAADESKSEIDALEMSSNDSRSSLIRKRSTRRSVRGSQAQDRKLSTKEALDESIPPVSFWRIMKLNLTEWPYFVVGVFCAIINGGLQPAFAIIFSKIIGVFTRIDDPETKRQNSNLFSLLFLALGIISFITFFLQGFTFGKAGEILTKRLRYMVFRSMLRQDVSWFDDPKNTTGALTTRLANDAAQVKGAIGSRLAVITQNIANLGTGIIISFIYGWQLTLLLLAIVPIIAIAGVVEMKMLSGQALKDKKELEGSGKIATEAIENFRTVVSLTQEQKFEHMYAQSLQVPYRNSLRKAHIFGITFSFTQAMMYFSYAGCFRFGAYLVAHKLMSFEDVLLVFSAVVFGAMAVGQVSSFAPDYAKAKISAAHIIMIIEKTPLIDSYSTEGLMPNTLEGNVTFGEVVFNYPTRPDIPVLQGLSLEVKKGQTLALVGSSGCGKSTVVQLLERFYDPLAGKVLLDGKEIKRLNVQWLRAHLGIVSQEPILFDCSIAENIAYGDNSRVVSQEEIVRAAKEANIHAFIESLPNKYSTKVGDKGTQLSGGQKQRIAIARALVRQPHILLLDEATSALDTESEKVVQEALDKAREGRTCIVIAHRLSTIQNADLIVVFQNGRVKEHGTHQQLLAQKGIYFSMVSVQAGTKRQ
# Sequence of BCRP (Q9UNQ0 whole entry, species assumed): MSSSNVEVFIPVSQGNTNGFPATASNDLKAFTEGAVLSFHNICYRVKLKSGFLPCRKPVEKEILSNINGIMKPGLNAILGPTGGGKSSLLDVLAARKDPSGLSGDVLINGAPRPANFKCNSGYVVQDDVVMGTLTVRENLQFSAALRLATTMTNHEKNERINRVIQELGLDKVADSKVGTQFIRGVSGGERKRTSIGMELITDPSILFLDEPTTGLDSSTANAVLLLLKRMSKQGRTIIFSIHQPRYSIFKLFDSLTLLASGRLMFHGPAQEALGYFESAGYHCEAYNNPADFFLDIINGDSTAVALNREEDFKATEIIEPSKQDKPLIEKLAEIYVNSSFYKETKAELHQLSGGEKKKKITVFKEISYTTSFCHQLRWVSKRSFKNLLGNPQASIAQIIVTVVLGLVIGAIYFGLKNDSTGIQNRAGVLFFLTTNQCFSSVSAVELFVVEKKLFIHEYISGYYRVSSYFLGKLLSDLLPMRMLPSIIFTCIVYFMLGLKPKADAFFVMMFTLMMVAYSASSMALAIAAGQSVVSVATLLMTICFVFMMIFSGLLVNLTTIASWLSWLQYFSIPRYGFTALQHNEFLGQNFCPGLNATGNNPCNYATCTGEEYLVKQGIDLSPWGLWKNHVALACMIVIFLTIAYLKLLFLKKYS
SMILES,IC50 (A375 cells; 72 h) [nM],"Kp [1, 4]","clearance [1, 5] [mL/min/kg]","half-life [1, 5] [min]","AUC(0-t) [1, 6] [µg·h/mL]","Vd [1, 5] [L/kg]","half-life [1, 7] [min]","AUC(0-t) [1, 8] [µg·h/mL]","IC50 (A375 cells; Homo sapiens, A-375, 72 h) [nM]","F ([1]; mouse, i.g. 10 mg/kg) [%]",other results
"N#Cc1c(NS(=O)(=O)N2CC3(CCC3F)C2)ccc(F)c1Oc1ccc2ncn(CC(F)F)c(=O)c2c1 (single isomer, unassigned) [Compound 40]",≤ 10,,,,,,,,,,
COn1cnc2ccc(Oc3c(F)ccc(NS(=O)(=O)N4CC[C@@H](F)C4)c3C#N)cc2c1=O [Compound 4],,0.053,0.37,316,107,0.147,241,282,≤ 10,,
Cn1cnc2ccc(Oc3c(F)ccc(NS(=O)(=O)N4CC5(CC5)C4)c3C#N)cc2c1=O [Compound 5],,0.0181,0.0627,1810,290,0.159,1150,1080,≤ 10,93.6,
COn1cnc2ccc(Oc3c(F)ccc(NS(=O)(=O)N4CC5(CCC5)C4)c3C#N)cc2c1=O [Compound 7],,0.0425,0.144,587,240,0.111,822,792,,92.6,
COn1cnc2ccc(Oc3c(F)ccc(NS(=O)(=O)N4CC5(CC5)C4)c3C#N)cc2c1=O [Compound 8],,0.0173,0.147,515,247,0.0941,774,1300,,≥98,
N#Cc1c(NS(=O)(=O)N2CC3(CCC3)C2)ccc(F)c1Oc1ccc2ncn(CC(F)F)c(=O)c2c1 [Compound 10],,0.0107,0.117,720,272,0.111,708,914,≤ 10,83.9,"F ([2]; i.g. 3 mg/kg): 79.7%; clearance ([2]; male, iv, beagle dog plasma, i.v. 0.5 mg/kg): 0.425 mL/min/kg; AUC(0-t) ([2]; male, iv, beagle dog plasma, i.v. 0.5 mg/kg, read-out: AUC0-t): 40900 ng·h/mL; Vd ([2]; male, iv, beagle dog plasma, i.v. 0.5 mg/kg, read-out: Vdss): 0.155 L/kg; AUC(0-t) ([2]; male, po, beagle dog plasma, i.g. 3 mg/kg, read-out: AUC0-t): 97800 ng·h/mL"
Cn1cnc2ccc(Oc3c(F)ccc(NS(=O)(=O)N4CC(CF)C4)c3C#N)cc2c1=O [Compound 14],,,,,,,,,≤ 10,,
Cn1cnc2ccc(Oc3c(F)ccc(NS(=O)(=O)N4CCC5CC54)c3C#N)cc2c1=O (centres unmarked) [Compound 17],,,,,,,,,≤ 10,,
N#Cc1c(NS(=O)(=O)N2CC3(CCC3)C2)ccc(F)c1Oc1ccc2ncn3ccnc3c2c1 [Compound 22],,,,,,,,,≤ 10,,
N#Cc1c(NS(=O)(=O)N2CC3(CCC3)C2)ccc(F)c1Oc1ccc2ncn(CCF)c(=O)c2c1 [Compound 26],,0.0179,0.119,768,266,0.114,521,832,≤ 10,78.1,
N#Cc1c(NS(=O)(=O)N2CC3(CCC3)C2)ccc(F)c1Oc1ccc2ncn(C3COC3)c(=O)c2c1 [Compound 33],≤ 10,,,,,,,,,,
N#Cc1c(NS(=O)(=O)N2CC3(CCC3)C2)cc(F)c(F)c1Oc1ccc2ncn(CCF)c(=O)c2c1 [Compound 39],≤ 10,,,,,,,,,,"AUC(0-t) ([2]; beagle dog plasma, i.g. 3 mg/kg): 84281 ng·h/mL; AUC(0-t) [2, 9]: 31095 ng·h/mL; CL [2, 9]: 0.541 mL/min/kg; Vdss [2, 9]: 0.08 L/kg; F ([2]; i.g. 3 mg/kg): 90.3%"
N#Cc1c(NS(=O)(=O)N2CC3(CCC3(F)F)C2)ccc(F)c1Oc1ccc2ncn(CC(F)F)c(=O)c2c1 [Compound 42],≤ 10,,,,,,,,,,
Cc1cnc2c3cc(Oc4c(F)ccc(NS(=O)(=O)N5CC6(CCC6)C5)c4C#N)ccc3ncn12 [Compound 44],≤ 10,,,,,,,,,87.9,"AUC(0-t) ([1]; mouse plasma, i.g. 10 mg/kg): 442.783 µg·h/mL; T1/2 ([1]; mouse plasma, i.g. 10 mg/kg): 14.2 h; AUC(0-t) ([1]; mouse plasma, i.v. 2.5 mg/kg): 125.977 µg·h/mL; CL ([1]; mouse plasma, i.v. 2.5 mg/kg): 0.335 mL/min/kg; T1/2 ([1]; mouse plasma, i.v. 2.5 mg/kg): 7.5 h; Vdss ([1]; mouse plasma, i.v. 2.5 mg/kg): 0.135 L/kg; brain/plasma ratio ([1]; mouse, i.g. 10 mg/kg): 0.0162"
N#Cc1c(NS(=O)(=O)N2CC3(CCC3)C2)cc(F)c(F)c1Oc1ccc2ncn3ccnc3c2c1 [Compound 46],≤ 10,,,,,,,,,,
N#Cc1c(NS(=O)(=O)N2CC3(CC3)C2)ccc(F)c1Oc1ccc2ncn(CCF)c(=O)c2c1 [Compound 47],≤ 10,,,,,,,,,,"AUC(0-t) (Rat pharmacokinetic test; [10]): 4256.852 µg·h/mL; T1/2 (Rat pharmacokinetic test; [10]): 60.6 h; AUC(0-t) (Rat pharmacokinetic test; [11]): 1156.844 µg·h/mL; CL (Rat pharmacokinetic test; [11]): 2.16 mL/h/kg; T1/2 (Rat pharmacokinetic test; [11]): 50.9 h; Vdss (Rat pharmacokinetic test; [11]): 0.156 L/kg; F (Rat pharmacokinetic test; rat, intragastric administration 10 mg/kg): 92%"
N#Cc1c(NS(=O)(=O)N2CC3(CC3)C2)ccc(F)c1Oc1ccc2ncn3ccnc3c2c1 [Compound 49],≤ 10,,,,,,,,,,
N#Cc1c(NS(=O)(=O)N2CC3(CC3)C2)cc(F)c(F)c1Oc1ccc2ncn(CCF)c(=O)c2c1 [Compound 50],≤ 10,,,,,,,,,,
N#Cc1c(NS(=O)(=O)N2CC[C@@H](F)C2)cc(F)c(F)c1Oc1ccc2ncn(CCF)c(=O)c2c1 [Compound 51],≤ 10,,,,,,,,,,
CCCS(=O)(=O)Nc1ccc(F)c(C(=O)c2c[nH]c3ncc(-c4ccc(Cl)cc4)cc23)c1F [Vemurafenib],,,,,,,,,,,MDR1 efflux ratio (MDR1): 83; BCRP efflux ratio (BCRP): 495; total brain-to-plasma ratio [3]: 0.004
